From paper PMC10143232, “Dihydropyrimidone Derivatives as Thymidine Phosphorylase Inhibitors: Inhibition Kinetics, Cytotoxicity, and Molecular Docking” (Molecules, 2023)
“Also recorded” adds a separate entry of the source.

Experiments:
[1] = target: T1, Thymidine phosphorylase (TP) (Escherichia coli, UniProt P07650); test: Mechanistic (kinetic) studies of TP inhibition; type: biochemical; conditions: E. coli TP; for Type of Inhibition: Lineweaver–Burk, Dixon plots; for Ki: inhibitor 200–500 µM, thymidine 0.1875–1.5 mM, read-out: Ki ± SEM
T1 construct: purchased Sigma Aldrich, USA
Description: Kinetic studies are used for the investigation of chemical reactions in terms of their reaction rates, reaction mechanisms, and the factors that affect these parameters. Herein, it is used determine the type/mechanism of inhibition of dihydropyrimidone derivatives.
(§1) EZ-FIT, enzyme kinetics software (Perrella Scientific, Inc., Amherst, GA, USA) was used to calculate the IC50 values. In order to analyse the kinetic parameter, Grafit version 7.0 (Erithacus Software Ltd., Horley, UK) was used.

[2] = target: T1, Thymidine phosphorylase (TP); test: Thymidine phosphorylase inhibition assay (spectrophotometric, 290 nm); type: biochemical, E. coli; conditions: for inhibition at 500 µM: pH 7, E. coli TP, test compound 10 µL of 0.5 mM in 200 µL, thymidine substrate, 30 °C, pH 7.0, read-out: Thymidine Phosphorylase Inhibitory Activity % Inhibition; for IC50: E. coli TP, n = 3, NA: not active, read-out: Thymidine Phosphorylase Inhibitory Activity IC50 ± SEM
Procedure: Thymidine phosphorylase (source: E. coli, EC Number 2.4.2.4), thymidine (substrate), and potassium phosphate monobasic (as buffer) were acquired from Sigma Aldrich, USA. […] Dimethylsulfoxide (DMSO), used as a solvent, was obtained from Fisher Scientific, Schwerte, Germany.
Reaction was performed in 96-well plates and in triplicates. The 200 µL reaction mixture was comprised of 10 µL of the test compound (0.5 mM; dissolved in DMSO), 150 µL of potassium phosphate buffer (pH 7.0, 50 mM), and 20 µL of TP enzyme (0.058 unit/well). The 96-well plate containing all these reagents was then incubated at 30 °C for 10 min.
SoftMax Pro 4.8 software (Molecular Devices, San Jose, CA, USA) was used to analyse the results.
as §1

[3] = tested on: 3T3 (mouse fibroblast) cell line; test: MTT cytotoxicity assay; type: cell-based
Procedure: (§2) Cytotoxicity of active compounds were evaluated employing a standard MTT calorimetric assay. Mouse fibroblast (3T3 cell line) acquired from American Type Culture Collection (ATCC), Virginia, USA, was cultured in DMEM (Dulbecco’s modified eagle medium). In total, 5% FBS (fetal bovine serum), penicillin (100 IU/mL), and streptomycin ([…]) were then added to the medium in […] flasks, and kept in a CO2 incubator at 37 °C. The harvested cell was then diluted with a specific medium. Haemocytometer was used for the quantification of cells. After that, the culture of cell having concentration of 5x104 (cells/mL) was prepared, inoculated into 96-well plates (100 µL/well), and then incubated overnight. After incubation, the old medium was removed, and fresh medium (200 µL) was added. Then different concentrations of test compounds (ranging from 1 to 30 µM) were added. After incubation of 48 h, each well received 200 µL of MTT dye (0.5 mg/mL), and further incubated for a duration of 4 h. After 4 h, 100 µL of DMSO was introduced into each well of the 96-well plate. The reduction of MTT to formazan was measured by recording absorbance at 540 nm with the help of a microplate reader (SpectraMax 384, Molecular Devices, San Jose, CA, USA).

MTT cytotoxicity assay = type: cell-based; conditions: 3T3 mouse fibroblast cells, 48 h, test compounds 1 to 30 µM, NC: non-cytotoxic, read-out: Cytotoxicity Studies Cell Viability (%)
Procedure: as §2

E. coli TP = tested on: E. coli TP; parameters: method as in earlier work; conditions: read-out: 50% inhibitory concentration (IC50); purified E. coli TP; conversion of dThd to Thy; ref [5]; cited from earlier work

T1 sequence (P07650 whole entry): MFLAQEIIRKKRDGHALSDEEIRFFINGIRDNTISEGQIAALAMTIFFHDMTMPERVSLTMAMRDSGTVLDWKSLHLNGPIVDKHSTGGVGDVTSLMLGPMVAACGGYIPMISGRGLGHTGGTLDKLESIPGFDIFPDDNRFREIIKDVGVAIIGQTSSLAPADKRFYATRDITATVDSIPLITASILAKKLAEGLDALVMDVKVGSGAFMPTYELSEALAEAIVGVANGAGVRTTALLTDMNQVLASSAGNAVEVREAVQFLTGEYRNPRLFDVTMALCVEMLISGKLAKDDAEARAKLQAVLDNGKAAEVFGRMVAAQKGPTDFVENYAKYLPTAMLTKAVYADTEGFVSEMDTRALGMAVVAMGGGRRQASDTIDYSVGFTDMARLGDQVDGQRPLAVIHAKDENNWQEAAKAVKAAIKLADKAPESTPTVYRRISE

Row | Structure (SMILES) | Type of Inhibition [1] | inhibition at 500 µM [2] [%] | Ki [1] [µM] | IC50 [2] [µM] | Cytotoxicity against 3T3 cells (in words) [3] | viability at 48 h (MTT cytotoxicity assay) [%] | IC50 (E. coli TP) [µM]
1 | O=c1[nH]c(=O)c2cc[nH]c2[nH]1 [7-Deazaxanthine, reference compound] | Non-Competitive | 82 | – | – | – | – | –
2 | COC(=O)C1=C(C)NC(=O)NC1c1ccccc1 (stereo not drawn) [Compound 1, Methyl 6-methyl-2-oxo-4-phenyl-1,2,3,4-tetrahydropyrimidine-5-carboxylate] | Non-Competitive | 84 | 326.3 ± 0.002 | 314.3 ± 0.9 | non-cytotoxic; also recorded: non-toxic | 57 | –
3 | COC(=O)C1=C(C)NC(=O)NC1c1cccc(OC)c1OC (stereo not drawn) [Compound 20, Methyl 4-(2,3-dimethoxyphenyl)-6-methyl-2-oxo-1,2,3,4-tetrahydropyrimidine-5-carboxylate] | – | 67.8 | – | 414.7 ± 1.6 | – | 62 | –
4 | COC(=O)C1=C(C)NC(=O)NC1CC(C)C (stereo not drawn) [Compound 21, Methyl 4-isobutyl-6-methyl-2-oxo-1,2,3,4-tetrahydropyrimidine-5-carboxylate] | – | 90.7 | – | 345.4 ± 0.5 | – | 55 | –
5 | COC(=O)C1=C(C)NC(=O)NC1c1ccc(OC)c(OC)c1 (stereo not drawn) [Compound 25, Methyl 4-(3,4-dimethoxyphenyl)-6-methyl-2-oxo-1,2,3,4-tetrahydropyrimidine-5-carboxylate] | – | 59 | – | 424.1 ± 0.9 | – | 99 | –
6 | COC(=O)C1=C(C)NC(=O)NC1c1ccc(C)o1 (stereo not drawn) [Compound 11, Methyl 6-methyl-4-(5-methylfuran-2-yl)-2-oxo-1,2,3,4-tetrahydropyrimidine-5-carboxylate] | – | 76.9 | – | 386 ± 0.6 | – | 77 | –
7 | COC(=O)C1=C(C)NC(=O)NC1c1cc(OC)c(O)c(OC)c1 (stereo not drawn) [Compound 30, Methyl 4-(4-hydroxy-3,5-dimethoxyphenyl)-6-methyl-2-oxo-1,2,3,4-tetrahydropyrimidine-5-carboxylate] | – | 69.6 | – | 396.7 ± 1.5 | – | 75 | –
8 | COC(=O)C1=C(C)NC(=O)NC1c1ccc(C)s1 (stereo not drawn) [Compound 32, Methyl 6-methyl-4-(5-methylthiophen-2-yl)-2-oxo-1,2,3,4-tetrahydropyrimidine-5-carboxylate] | – | 58.3 | – | 485.7 ± 1.5 | – | 85 | –
9 | COC(=O)C1=C(C)NC(=O)NC1c1ccc([N+](=O)[O-])cc1 (stereo not drawn) [Compound 12, Methyl 6-methyl-4-(4-nitrophenyl)-2-oxo-1,2,3,4-tetrahydropyrimidine-5-carboxylate] | Non-Competitive | 91.5 | 297.6 ± 0.006 | 303.5 ± 0.4 | non-cytotoxic; also recorded: non-toxic | 57 | –
10 | COC(=O)C1=C(C)NC(=O)NC1c1ccc(C(F)(F)F)cc1 (stereo not drawn) [Compound 33, Methyl 6-methyl-2-oxo-4-(4-(trifluoromethyl)phenyl)-1,2,3,4-tetrahydropyrimidine-5-carboxylate] | Non-Competitive | 73.6 | 311.4 ± 0.004 | 322.6 ± 1.6 | non-cytotoxic; also recorded: non-toxic | 61 | –
11 | Oc1ncnc2c1ncn2[C@@H]1O[C@H](COC(c2ccccc2)(c2ccccc2)c2ccccc2)[C@@H](O)[C@H]1O [KIN59, 5′-O-tritylinosine] | – | – | – | – | – | – | 44 ± 3
